The test system of the assay is HCT 116 cells. The assay can be described thus: CellTiter-Glo Luminescent Cell Viability Assay in HCT 116 cells. The format is cell-based. The note with it: HCT 116 human colon carcinoma cells, 5 days (120 h) incubation, CellTiter-Glo luminescence, triplicate. An excerpt: CellTiter-Glo™ Assay in HCT 116 Cells
The CellTiter-Glo™ Luminescent Cell Viability Assay (Promega) is a homogeneous method of determining the number of viable cells in culture based on quantitation of the ATP present, which signals the presence of metabolically active cells.
HCT 116 cells (human colon carcinoma, ATCC-No. CCI-247) were cultivated in RPMI 1640 medium with GlutaMAX™ I (Invitrogen, Cat-No. 61870-010), 5% Fetal Calf Serum (FCS, Sigma Cat-No. F4135 (FBS)); 100 Units/ml penicillin/[…] streptomycin (=Pen/Strep from Invitrogen Cat. No. 15140).
For the assay the cells were seeded in 384 well plates, 1000 cells per well, in the same medium. The next day the test compounds were added in various concentrations ranging from 30 μM to 0.0015 μM (10 concentrations, 1:3 diluted). After 5 days the CellTiter-Glo™ assay was done according to the instructions of the manufacturer (CellTiter-Glo™ Luminescent Cell Viability Assay, from Promega). In brief: the cell-plate was equilibrated to room temperature for approximately 30 minutes and than the CellTiter-Glo™ reagent was added. The contents were carefully mixed for 15 minutes to induce cell lysis. After 45 minutes the luminescent signal was measured in Victor 2, (scanning multiwell spectrophotometer, Wallac).
• Medium: RPMI 1640 with GlutaMAX™ I (Invitrogen, Cat-Nr. 61870), 5% FCS (Sigma Cat.-No. F4135), Pen/Strep (Invitrogen, Cat No. 15140). • HCT116 (ATCC-No. CCI-247): 1000 cells in 60 μl per well of 384 well plate (Greiner 781098, μClear-plate white) • After seeding incubate plates 24 h at 37° C., 5% CO2 2nd. day: Induction (Treatment with Compounds, 10 Concentrations):
In order to achieve a final concentration of 30 μM as highest concentration 3.5 μl of 10 mM compound stock solution were added directly to 163 μl media. Then step e) of the dilution procedure described below, was followed.
For orientation: ATP-based viability assays read luminescence as a measure of living cells.
The compound `COc1cc(Cl)ccc1C(=O)NS(=O)(=O)c1ccc(-c2ccccc2NS(C)(=O)=O)nc1` [Example 1-11, 6-(2-Methanesulfonylamino-phenyl)-pyridine-3-sulfonic acid 4-chloro-2-methoxy-benzoylamide] returned an IC50 of 500 to 7500 nM.
In the case of `COc1cccc(OC)c1-c1ccc(S(=O)(=O)NC(=O)c2ccc(Cl)cc2Cl)cn1` [Example 1-1, 6-(2,6-Dimethoxy-phenyl)-pyridine-3-sulfonic acid 2,4-dichloro-benzoylamide] it was 1430 nM.
As for `CS(=O)(=O)c1ccccc1-c1ccc(S(=O)(=O)NC(=O)c2ccc(Cl)cc2Cl)cn1` [Example 1-8, 6-(2-Methanesulfonyl-phenyl)-pyridine-3-sulfonic acid 2,4-dichloro-benzoylamide], the IC50 was determined as 2940 nM.
In the case of `Cc1cc(S(=O)(=O)NC(=O)c2ccc(F)cc2Cl)cnc1-c1ccccc1Cl` [Example 1-15, 6-(2-Chloro-phenyl)-5-methyl-pyridine-3-sulfonic acid 2-chloro-4-fluoro-benzoylamide] it was 500 to 7500 nM; in that of `COc1cc(Cl)ccc1C(=O)NS(=O)(=O)c1ccc(-c2c(C)cc(C)cc2C)nc1` [Example 1-5, 6-(2,4,6-Trimethyl-phenyl)-pyridine-3-sulfonic acid 4-chloro-2-methoxy-benzoylamide], 500 to 7500 nM.
In turn, `COc1cccc(OC)c1-c1ccc(S(=O)(=O)NC(=O)c2ccc(F)cc2C(F)(F)F)cn1` [Example 1-3, 6-(2,6-Dimethoxy-phenyl)-pyridine-3-sulfonic acid 4-fluoro-2-trifluoromethyl-benzoylamide] gave an IC50 of 500 to 7500 nM.
The compound `COc1cccc(OC)c1-c1ccc(S(=O)(=O)NC(=O)c2ccc(F)cc2Cl)cn1` [Example 1-2, 6-(2,6-Dimethoxy-phenyl)-pyridine-3-sulfonic acid 2-chloro-4-fluoro-benzoylamide] had an IC50 of 500 to 7500 nM.
The compound `COc1ccccc1-c1ncc(S(=O)(=O)NC(=O)c2ccc(Cl)cc2Cl)cc1C` [Example 1-12, 6-(2-Methoxy-phenyl)-5-methyl-pyridine-3-sulfonic acid 2,4-dichloro-benzoylamide] had an IC50 of 3980 nM.
In the case of `COc1cc(Cl)ccc1C(=O)NS(=O)(=O)c1ccc(-c2c(OC)cccc2OC)nc1` [Example 1-4, 6-(2,6-Dimethoxy-phenyl)-pyridine-3-sulfonic acid 4-chloro-2-methoxy-benzoylamide] it was 500 to 7500 nM; in that of `COc1ccccc1-c1ncc(S(=O)(=O)NC(=O)c2ccc(F)cc2C(F)(F)F)cc1C` [Example 1-13, 6-(2-Methoxy-phenyl)-5-methyl-pyridine-3-sulfonic acid 4-fluoro-2-trifluoromethyl-benzoylamide], 500 to 7500 nM; in that of `Cc1cc(S(=O)(=O)NC(=O)c2ccc(F)cc2C(F)(F)F)cnc1-c1ccccc1Cl` [Example 1-14, 6-(2-Chloro-phenyl)-5-methyl-pyridine-3-sulfonic acid 4-fluoro-2-trifluoromethyl-benzoylamide], 500 to 7500 nM.
The value for `COc1cccc(F)c1-c1ccc(S(=O)(=O)NC(=O)c2ccc(Cl)cc2Cl)cn1` [Example 1-10, 6-(2-Fluoro-6-methoxy-phenyl)-pyridine-3-sulfonic acid 2,4-dichloro-benzoylamide] was 500 to 7500 nM.
The value for `CSc1ccccc1-c1ccc(S(=O)(=O)NC(=O)c2ccc(Cl)cc2Cl)cn1` [Example 1-7, 6-(2-Methylsulfanyl-phenyl)-pyridine-3-sulfonic acid 2,4-dichloro-benzoylamide] was 500 to 7500 nM; that for `COc1cc(Cl)ccc1C(=O)NS(=O)(=O)c1ccc(-c2c(C)cccc2C)nc1` [Example 1-6, 6-(2,6-Dimethyl-phenyl)-pyridine-3-sulfonic acid 4-chloro-2-methoxy-benzoylamide] was 500 to 7500 nM.
In the case of `COc1cc(Cl)ccc1C(=O)NS(=O)(=O)c1cnc(-c2ccccc2Cl)c(C)c1` [Example 1-16, 6-(2-Chloro-phenyl)-5-methyl-pyridine-3-sulfonic acid 4-chloro-2-methoxy-benzoylamide], the 50% inhibitory concentration (IC50) is 500 to 7500 nM.
In the case of `O=C(NS(=O)(=O)c1ccc(-c2ccc(C(F)(F)F)cc2C(F)(F)F)nc1)c1ccc(Cl)cc1Cl` [Example 1-9, 6-(2,4-Bis-trifluoromethyl-phenyl)-pyridine-3-sulfonic acid 2,4-dichloro-benzoylamide] it was 500 to 7500 nM.

As a reminder, the IC50 is the concentration that gives 50% inhibition. Read a high IC50 as lower potency.
